Source: ChEMBL document CHEMBL1201862, “PubChem BioAssay data set” (2004)
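Values below derive from 48-hour exposures of cells grown in 96-well plates, with endpoints linearly interpolated between the two concentrations bracketing the appropriate inhibition level. Abbreviation: GI50, concentration required for 50% inhibition of growth.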 Activity calls are given as the source filed them. No stated cut-off is given here; in the data, active = GI50 up to about 1.1 µM and inactive = higher.

What was measured:
Assay in all cases: NCI-60 cell line screen, 48 h
786-0 = tested on: 786-0
COLO 205 = tested on: COLO 205
HT-29 = tested on: HT-29
KM12 = tested on: KM12
LOX IMVI = tested on: LOX IMVI
M14 = tested on: M14
Malme-3M = tested on: Malme-3M
NCI-H23 = tested on: NCI-H23
OVCAR-5 = tested on: OVCAR-5
RXF 393 = tested on: RXF 393
SK-OV-3 = tested on: SK-OV-3
SNB-75 = tested on: SNB-75
SW-620 = tested on: SW-620
TK-10 = tested on: TK-10
UO-31 = tested on: UO-31

Measured: GI50

CC1(Br)C(=O)NC(=O)N(C2CC(N=[N+]=[N-])C(CO)O2)C1N=[N+]=[N-] (stereo not given)
inactive: 786-0 > 100 µM | COLO 205 > 100 µM | HT-29 > 100 µM | KM12 > 100 µM | LOX IMVI > 100 µM | M14 > 100 µM | Malme-3M 97.9 µM | NCI-H23 > 100 µM | OVCAR-5 > 100 µM | RXF 393 91.8 µM | SK-OV-3 > 100 µM | SNB-75 > 100 µM | SW-620 > 100 µM | TK-10 > 100 µM | UO-31 > 100 µM

O=C(Nc1cccc(Cc2cccc(NC(=O)c3ccccc3)c2)c1)c1ccccc1
inactive: 786-0 26.9 µM | COLO 205 > 100 µM | HT-29 > 100 µM | KM12 > 100 µM | LOX IMVI > 100 µM | M14 55.1 µM | Malme-3M 23.3 µM | NCI-H23 33.1 µM | OVCAR-5 > 100 µM | RXF 393 14.8 µM | SK-OV-3 25.8 µM | SNB-75 10.5 µM | SW-620 > 100 µM | TK-10 > 100 µM | UO-31 12.7 µM

CSc1snc2sc3c(Cl)nnnc3c12
inactive: 786-0 15.9 µM | COLO 205 10.5 µM | HT-29 4.84 µM | KM12 16.4 µM | LOX IMVI 3.12 µM | M14 12.6 µM | Malme-3M 11.4 µM | NCI-H23 18.3 µM | OVCAR-5 17.2 µM | RXF 393 12.3 µM | SK-OV-3 17.7 µM | SNB-75 11.5 µM | SW-620 3.8 µM | TK-10 16.9 µM | UO-31 13 µM

O=C(COC(=O)c1cccc2c(=O)c3ccccc3[nH]c12)Nc1ccc(S(=O)(=O)Nc2ncccn2)cc1
inactive: 786-0 42.2 µM | COLO 205 59.6 µM | HT-29 31.8 µM | KM12 43.9 µM | LOX IMVI 35.7 µM | M14 93.1 µM | Malme-3M 49.5 µM | NCI-H23 37.5 µM | OVCAR-5 39.3 µM | RXF 393 43.3 µM | SK-OV-3 39.5 µM | SNB-75 30 µM | SW-620 47.2 µM | TK-10 39.4 µM | UO-31 > 100 µM

O=C(OCN1C(=O)C2C3C=CC(C2C1=O)C1C2C(=O)N(COC(=O)C4CCCN4)C(=O)C2C31)C1CCCN1 (stereo not given)
inactive: 786-0 35.6 µM | COLO 205 59.8 µM | HT-29 67 µM | KM12 > 94 µM | LOX IMVI 35.9 µM | M14 71.6 µM | Malme-3M > 100 µM | NCI-H23 > 100 µM | OVCAR-5 > 100 µM | RXF 393 > 76.6 µM | SK-OV-3 > 100 µM | SNB-75 > 82.6 µM | SW-620 30.2 µM | TK-10 > 100 µM | UO-31 > 100 µM
